According to patent publication US9302999B2, “Substituted triazoles as herbicides” (E. I. DU PONT DE NEMOURS AND COMPANY, priority 2012, dated 2016):

Experiments:
Format in all cases: in vivo
Conditions in all cases: evaluated after 14 days
[1] = tested on: ducksalad (HETLI, Heteranthera limosa); assay: Test G paddy, alone and in combination: ducksalad
Experimental: (§1) Seeds of smallflower umbrella sedge (CYPDI, Cyperus difformis) and ducksalad (HETLI, Heteranthera limosa) were sown on the soil surface in two separate quadrants of 11 cm tubs filled with steam pasteurized Tama soil. Simultaneously, plantings of barnyardgrass (ECHCG, Echinochloa crus-galli) and japonica rice (ORYSP, Oryza sativa) were established in separate “plug” flats. Plants were grown in a greenhouse using supplemental lighting to maintain a photoperiod of approximately 16 h; daytime and nighttime temperatures were approximately 27-30° C. and 19-22° C., respectively. After 8 days, barnyardgrass plants were transplanted to one of the remaining quadrants of the tub, and the water level was adjusted to a final depth of 3 cm. Herbicide application timing was targeted at the 2.0 to 2.5 leaf stage and the plants were treated with test chemicals formulated in a non-phytotoxic solvent. Treated plants and controls were maintained in a greenhouse for 14 days, after which time all species were compared to controls and visually evaluated. Plant response ratings are summarized in Tables G1 through G3, and are based on a scale of 0 to 100 where 0 is no effect and 100 is complete control. A dash (-) response means no test result.

[2] = tested on: smallflower umbrella sedge (CYPDI, Cyperus difformis); assay: Test G paddy, alone and in combination: smallflower umbrella sedge
Experimental: as §1

[3] = tested on: barnyardgrass (ECHCG, Echinochloa crus-galli); assay: Test G paddy, alone and in combination: barnyardgrass
Experimental: as §1

[4] = tested on: japonica rice (ORYSP, Oryza sativa); assay: Test G paddy, alone and in combination: japonica rice
Experimental: as §1

COC(=O)c1ccccc1CS(=O)(=O)NC(=O)Nc1nc(OC)cc(OC)n1 [b2a, bensulfuron-methyl]
HETLI plant response rating (scale of 0 to 100) ([1]; Rate 16 g/ha): 90
HETLI plant response rating (scale of 0 to 100) ([1]; Rate 31 g/ha): 95
HETLI plant response rating (scale of 0 to 100) ([1]; Rate 32 g/ha): 90
HETLI plant response rating (scale of 0 to 100) ([1]; Rate 62 g/ha): 98
HETLI plant response rating (scale of 0 to 100) ([1]; Rate 64 g/ha): 95
HETLI plant response rating (scale of 0 to 100) ([1]; Rate 125 g/ha): 98
CYPDI plant response rating (scale of 0 to 100) ([2]; Rate 16 g/ha): 90
CYPDI plant response rating (scale of 0 to 100) ([2]; Rate 31 g/ha): 90
CYPDI plant response rating (scale of 0 to 100) ([2]; Rate 32 g/ha): 90
CYPDI plant response rating (scale of 0 to 100) ([2]; Rate 62 g/ha): 93
CYPDI plant response rating (scale of 0 to 100) ([2]; Rate 64 g/ha): 90
CYPDI plant response rating (scale of 0 to 100) ([2]; Rate 125 g/ha): 93
ECHCG plant response rating (scale of 0 to 100) ([3]; Rate 16 g/ha): 60
ECHCG plant response rating (scale of 0 to 100) ([3]; Rate 31 g/ha): 68
ECHCG plant response rating (scale of 0 to 100) ([3]; Rate 32 g/ha): 60
ECHCG plant response rating (scale of 0 to 100) ([3]; Rate 62 g/ha): 75
ECHCG plant response rating (scale of 0 to 100) ([3]; Rate 64 g/ha): 68
ECHCG plant response rating (scale of 0 to 100) ([3]; Rate 125 g/ha): 75
ORYSP plant response rating (scale of 0 to 100) ([4]; Rate 16 g/ha): 0
ORYSP plant response rating (scale of 0 to 100) ([4]; Rate 31 g/ha): 0
ORYSP plant response rating (scale of 0 to 100) ([4]; Rate 32 g/ha): 0
ORYSP plant response rating (scale of 0 to 100) ([4]; Rate 62 g/ha): 0
ORYSP plant response rating (scale of 0 to 100) ([4]; Rate 64 g/ha): 0
ORYSP plant response rating (scale of 0 to 100) ([4]; Rate 125 g/ha): 0

COCCCn1c(-c2cccc(OC)c2)ncc(C(=O)C2=C(O)CCCC2=O)c1=O [b12a, 5-[(2-hydroxy-6-oxo-1-cyclohexen-1-yl)carbonyl]-2-(3-methoxyphenyl)-3-(3-methoxypropyl)-4(3H)-pyrimidinone]
HETLI plant response rating (scale of 0 to 100) ([1]; Rate 125 g/ha): 80
CYPDI plant response rating (scale of 0 to 100) ([2]; Rate 125 g/ha): 80
ECHCG plant response rating (scale of 0 to 100) ([3]; Rate 125 g/ha): 35
ORYSP plant response rating (scale of 0 to 100) ([4]; Rate 125 g/ha): 5
